# Compound: N[C@@H]1CCCN(c2c(/C=C3\SC(=O)NC3=O)cccc2-c2ccccc2)C1 [AZD1208] + O=C(c1cc(Cc2n[nH]c(=O)c3ccccc23)ccc1F)N1CCN(C(=O)C2CC2)CC1 [Olaparib] (partner 8 µM)
# Experiment: relative viability (nuclei count vs DMSO), 5 days (fraction); higher = more cells survive
# Settings: first compound 0.8 µM
# How it was run: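 One day after seeding in 1536-well plates, lung cancer cell lines were dosed by pin tool. Dosing was either single-drug or a fixed anchor-drug dose plus five library-drug doses (not always all listed) in √10 steps. After 5 days, nuclei were stained in one fix-and-stain step and counted on 4× images, and relative viability is the nuclei count of treated wells over that of vehicle wells, given as the median of duplicate plates.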
row,Cell Line,relative viability
1,NCI-H1648,0.663
2,HCC-78,0.762
3,NCI-H441,0.545
4,LCLC-97TM1,0.385
5,NCI-H2023,0.416
6,A-427,0.605
7,NCI-H460,0.407
8,NCI-H727,0.917
9,NCI-H1734,0.554
10,NCI-H520,0.271
11,NCI-H2405,0.813
12,SW 1573,0.336
13,NCI-H1395,0.406
14,201T,0.866
15,NCI-H1915,0.261
16,HCC-827,0.389
17,LXF-289,1.06
18,NCI-H2347,0.518
19,NCI-H1299,0.974

# Same assay, conditions: first compound 2.53 µM
row,Cell Line,relative viability
1,NCI-H522,0.703
2,NCI-H838,0.759
3,NCI-H1650,0.856
4,EBC-1,0.687
5,NCI-H1703,0.384
6,NCI-H2009,0.673
7,NCI-H1993,0.968
8,PC-14,0.365
9,LCLC-103H,0.81
10,NCI-H596,0.632
11,NCI-H2228,0.527
12,EMC-BAC-2,0.472
13,NCI-H2087,0.515
14,Calu-6,0.592
15,HCC-366,0.316
16,NCI-H1666,0.693
17,NCI-H647,0.531
18,LK-2,0.324
19,NCI-H2126,0.912
20,NCI-H2342,0.456
21,SK-MES-1,0.653
22,H3255,0.597
23,COR-L23,0.304

row,Cell Line,relative viability
1,COR-L 105,0.736
2,IA-LM,0.807
3,LOU-NH91,0.907
4,ChaGo-K-1,0.437
5,NCI-H2170,0.552
6,NCI-H3122,0.608
7,HOP-62,0.341
8,HCC-44,0.996
9,A549,0.261
10,SW 900,0.923
11,LU99A,0.235
12,BEN,0.758
13,HARA,0.743
14,NCI-H1648,0.828
15,HCC-78,0.815
16,NCI-H441,0.502
17,LCLC-97TM1,0.316
18,NCI-H2023,0.44
19,A-427,0.713
20,NCI-H460,0.431
21,NCI-H727,0.743
22,NCI-H1734,0.544

# Source: the supplement of paper PMC10307832
